Data on 1 molecule can be found in patent US20090311321A1, “ORAL DISINTEGRATING TABLET HAVING MASKED BITTER TASTE AND METHOD FOR PRODUCTION THEREOF” (KISSEI PHARMACEUTICAL CO., LTD., priority 2006, published 2009).

The nature of the data set: Solubility of mitiglinide calcium hydrate (water, pH dependence). In kind it is physicochemical. From the text:
The inventors of the present invention conducted studies on orally disintegrating tablets containing mitiglinide calcium hydrate. […] Because the orally disintegrating tablets are designed to quickly disintegrate in the mouth, the influence of bitterness becomes a big factor when the active ingredient has a bitter taste. […] Under these circumstances, the inventors of the present invention conducted studies to provide a mitiglinide calcium hydrate-containing orally disintegrating tablet having reduced bitterness and capable of rapidly dissolving in the digestive tract.
As mentioned above, the mitiglinide calcium hydrate-containing preparation is administered immediately before meal, and preferably, rapidly dissolves upon administration to improve postprandial hyperglycemia. It is therefore desirable in an orally disintegrating tablet of the present invention that the tablet rapidly dissolves in the digestive tract, particularly in the stomach, after having disintegrated in the mouth. […] It is therefore preferable that an orally disintegrating tablet of the present invention rapidly dissolve in the stomach and water.

For `O=C(O)[C@H](CC(=O)N1C[C@H]2CCCC[C@H]2C1)Cc1ccccc1` [mitiglinide calcium hydrate, (+)-Monocalcium bis[(2S,3a,7a-cis)-α-benzylhexahydro-γ-oxo-2-isoindolinebutyrate]dihydrate], where the note is “alkaline versus neutral to acidic pH”, the pH-dependent solubility entry was “soluble in an alkaline pH range, and insoluble toward the neutral to acidic pH”. Moreover, under “water”, the Solubility in water result is “does not easily dissolve in water”.
